# Assay results as given in patent publication US12643881B2, “Bicyclic amine CDK12 inhibitors” (Incyte Corporation, priority 2021, dated 2026).
# pIC50: −log10 of the molar value.
# Molecular target: T1, CDK12 complexed with Cyclin K (Homo sapiens, UniProt Q9NYV4)
# T1 construct: GST (N)
# Assay: CDK Enzymatic Assays (HTRF, LANCE Ultra kinase assay), Example A1
# Format: biochemical
# Conditions: enzyme pre-incubated with compounds for 60 minutes prior to addition of ATP (1 mM final) and Ulight-peptide; reaction 60-90 minutes at room temperature
# Excerpt: Example A1. CDK Enzymatic Assays
# The following activity of the CDK enzymes in complex with their respective cyclins we assayed: CDK1 complexed with Cyclin B1; CDK2 complexed with Cyclin E1; CDK4 complexed with Cyclin D1; CDK6 complexed with Cyclin D1; CDK6 complexed with Cyclin D3; CDK9 complexed with Cyclin T1; CDK7 complexed with Cyclin H/MAT1; CDK2 complexed with Cyclin A2; CDK5 complexed with p35; CDK12 complexed with Cyclin K; CDK13 complexed with Cyclin K. These in vitro enzyme activity are assayed using homogeneous time-resolved energy transfer (HTRF), which measures phosphorylation of a peptide substrate. The LANCER Ultra kinase assay (PerkinElmer) uses a ULight™-labeled EIF4E-binding protein 1 (THR37/46) peptide (DYSTTPGGTLFSTTPGTRI (SEQ ID NO: 1)) substrate and a Europium-labeled anti-phospho-4E-BP1 antibody (CDK2, CDK1, CDK4, CDK6, CDK9, CDK12, CDK13) or ULight™-labeled Myelin Basic Protein peptide (VTPRTPPP (SEQ ID NO: 2)) substrate and a Europium-labeled anti-phospho-MBP antibody (CDK7). Each CDK enzyme activity assays utilized human CDK co-expressed as N-terminal GST-tagged protein with its full length cyclin partner using a baculovirus expression system.
# Enzyme was pre-incubated with compounds for 30 minutes (CDK1,2,4,6,9) or 60 minutes (CDK7, CDK12, CDK13) prior to addition of ATP and Ulight-peptide (1 mM and 50 nM final, respectively), in assay buffer containing 50 mM HEPES pH 7.5, 1 mM EGTA, 10 mM MgCl2, 2 mM DTT, 0.05 mg/mL BSA, and 0.01% Tween 20. The reaction was then incubated for 60-90 minutes at room temperature. The reactions were stopped by the addition of EDTA and Europium labeled antibody, for a final concentration of 15 mM and 1.0-1.5 nM, respectively. HTRF signals were read after 15-120 minutes. A ratio of fluorescence transferred to the labeled substrate (665 nm) relative to fluorescence of the Europium donor (620 nm) represents the extent of phosphorylation. Ratios for treated wells were normalized to DMSO only (100% activity) and no enzyme (0% activity) controls. Normalized data was analyzed using a three or four parameter dose response curve to determine IC50 for each compound and are shown in Table A. Control reference inhibitors were included on each plate.
# T1 sequence (Q9NYV4 whole entry): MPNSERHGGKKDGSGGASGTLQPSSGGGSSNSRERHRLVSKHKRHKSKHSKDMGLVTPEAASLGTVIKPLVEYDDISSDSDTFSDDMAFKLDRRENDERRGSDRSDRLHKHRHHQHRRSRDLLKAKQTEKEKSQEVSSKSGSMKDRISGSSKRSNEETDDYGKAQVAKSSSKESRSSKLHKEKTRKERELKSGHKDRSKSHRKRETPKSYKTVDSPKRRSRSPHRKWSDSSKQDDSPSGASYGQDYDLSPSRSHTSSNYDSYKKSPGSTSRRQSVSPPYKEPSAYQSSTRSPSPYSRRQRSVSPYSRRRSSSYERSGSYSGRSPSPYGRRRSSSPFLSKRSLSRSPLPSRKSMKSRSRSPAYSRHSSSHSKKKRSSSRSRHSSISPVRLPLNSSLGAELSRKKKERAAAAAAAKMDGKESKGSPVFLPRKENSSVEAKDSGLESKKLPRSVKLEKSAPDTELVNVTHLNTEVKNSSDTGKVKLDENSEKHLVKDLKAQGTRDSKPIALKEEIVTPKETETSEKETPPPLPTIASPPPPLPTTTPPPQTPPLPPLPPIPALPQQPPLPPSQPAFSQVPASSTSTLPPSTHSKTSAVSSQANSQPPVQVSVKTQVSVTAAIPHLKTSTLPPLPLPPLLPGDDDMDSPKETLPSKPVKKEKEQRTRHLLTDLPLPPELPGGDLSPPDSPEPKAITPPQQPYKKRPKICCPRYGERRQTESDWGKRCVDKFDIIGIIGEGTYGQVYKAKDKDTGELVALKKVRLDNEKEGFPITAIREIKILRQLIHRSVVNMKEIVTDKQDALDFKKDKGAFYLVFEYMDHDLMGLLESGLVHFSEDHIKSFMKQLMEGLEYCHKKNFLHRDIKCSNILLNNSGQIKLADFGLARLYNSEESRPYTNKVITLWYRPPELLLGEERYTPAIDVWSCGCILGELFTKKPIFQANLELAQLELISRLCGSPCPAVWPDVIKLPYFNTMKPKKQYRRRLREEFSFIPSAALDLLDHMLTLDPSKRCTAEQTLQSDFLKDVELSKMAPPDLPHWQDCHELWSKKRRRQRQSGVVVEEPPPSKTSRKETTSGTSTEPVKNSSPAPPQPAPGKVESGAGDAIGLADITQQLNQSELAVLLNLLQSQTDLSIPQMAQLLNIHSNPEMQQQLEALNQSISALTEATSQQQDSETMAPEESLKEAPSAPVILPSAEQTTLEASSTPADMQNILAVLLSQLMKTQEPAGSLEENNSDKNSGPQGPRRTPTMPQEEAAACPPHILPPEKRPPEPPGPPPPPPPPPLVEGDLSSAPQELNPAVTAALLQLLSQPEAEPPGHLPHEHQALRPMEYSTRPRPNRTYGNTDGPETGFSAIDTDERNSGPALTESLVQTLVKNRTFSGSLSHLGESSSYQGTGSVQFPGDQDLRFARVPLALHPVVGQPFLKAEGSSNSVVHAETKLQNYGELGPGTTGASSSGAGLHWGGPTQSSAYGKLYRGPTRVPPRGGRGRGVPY
# T1 sequence (O75909 whole entry partner): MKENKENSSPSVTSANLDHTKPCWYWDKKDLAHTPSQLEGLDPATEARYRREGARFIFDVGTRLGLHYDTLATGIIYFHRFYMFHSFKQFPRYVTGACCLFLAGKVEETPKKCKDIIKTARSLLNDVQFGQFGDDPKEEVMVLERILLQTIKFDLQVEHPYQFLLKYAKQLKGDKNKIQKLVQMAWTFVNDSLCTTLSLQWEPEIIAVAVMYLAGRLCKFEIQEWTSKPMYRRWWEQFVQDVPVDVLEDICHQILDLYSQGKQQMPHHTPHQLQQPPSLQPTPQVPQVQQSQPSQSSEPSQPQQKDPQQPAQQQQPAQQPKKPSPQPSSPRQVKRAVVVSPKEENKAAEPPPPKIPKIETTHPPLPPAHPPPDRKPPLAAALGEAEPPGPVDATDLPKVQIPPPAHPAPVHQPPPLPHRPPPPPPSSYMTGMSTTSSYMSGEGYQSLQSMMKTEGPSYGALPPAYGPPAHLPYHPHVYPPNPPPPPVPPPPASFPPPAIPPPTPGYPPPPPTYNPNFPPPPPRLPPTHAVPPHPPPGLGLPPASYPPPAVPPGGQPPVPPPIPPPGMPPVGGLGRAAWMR
row,pIC50,SMILES
1,> 7.30,"C=CC(=O)Nc1cccc2c(N3CCC[C@@H](Nc4ncc(C#N)c(OC)n4)C3)nn(C)c12 [Example 35, (R)—N-(3-(3-((5-Cyano-4-methoxypyrimidin-2-yl)amino)piperidin-1-yl)-1-methyl-1H-indazol-7-yl)acrylamide]"
2,> 7.30,"COc1nc(N[C@@H]2CCC[C@H](N3Cc4ccc(NC(=O)CBr)cc4C3=O)C2)ncc1C#N [Example 58, 2-Bromo-N-(2-((1S,3R)-3-((5-cyano-4-methoxypyrimidin-2-yl)amino)cyclohexyl)-3-oxoisoindolin-5-yl)acetamide]"
3,> 7.30,"C=CC(=O)Nc1ccc2c(c1)C(=O)N([C@H]1CCC[C@@H](Nc3ncc(C=C)cn3)C1)C2 [Example 7, N-(3-Oxo-2-((1S,3R)-3-((5-vinylpyrimidin-2-yl)amino)cyclohexyl)isoindolin-5-yl)acrylamide]"
4,< 6.30,"C=CC(=O)Nc1ccc2c(c1)cc(N1CCC[C@@H](Nc3ncc(C#N)c(OC)n3)C1)n2C [Example 39, (R)—N-(2-(3-((5-Cyano-4-methoxypyrimidin-2-yl)amino)piperidin-1-yl)-1-methyl-1H-indol-5-yl)acrylamide]"
5,> 7.30,"C=CC(=O)Nc1ccc2c(c1)nc(N1C[C@H](F)C[C@@H](Nc3ncc(C#N)cn3)C1)n2C [Example 89, N-(2-((3R,5R)-3-((5-Cyanopyrimidin-2-yl)amino)-5-fluoropiperidin-1-yl)-1-methyl-1H-benzo[d]imidazol-5-yl)acrylamide]"
6,> 7.30,"C=CC(=O)Nc1nc2cccc(N3CC[C@@H](Nc4ncc(C#N)c(OC)n4)C3)n2n1 [Example 23, (R)—N-(5-(3-((5-Cyano-4-methoxypyrimidin-2-yl)amino)pyrrolidin-1-yl)-[1,2,4]triazolo[1,5-a]pyridin-2-yl)acrylamide]"
7,> 7.30,"C=CC(=O)Nc1ccc2c(c1)C(=O)N([C@H]1CCC[C@@H](Nc3ncc(C)c(C(F)(F)F)n3)C1)C2 [Example 5, N-(2-((1S,3R)-3-((5-Methyl-4-(trifluoromethyl)pyrimidin-2-yl)amino)cyclohexyl)-3-oxoisoindolin-5-yl)acrylamide]"
8,> 7.30,"C=CC(=O)Nc1ccc2c(c1)nc(N1CC[C@H](F)[C@@H](Nc3ncc(C(F)(F)F)cn3)C1)n2C [Example 91, N-(2-((3S,4S)-4-Fluoro-3-((5-(trifluoromethyl)pyrimidin-2-yl)amino)piperidin-1-yl)-1-methyl-1H-benzo[d]imidazol-5-yl)acrylamide]"
9,> 7.30,"C=CC(=O)Nc1cccc2c1ncn2[C@H]1CCC[C@@H](Nc2ncc(C#N)c(OC)n2)C1 [Example 27, N-(1-((1S,3R)-3-((5-Cyano-4-methoxypyrimidin-2-yl)amino)cyclohexyl)-1H-benzo[d]imidazol-4-yl)acrylamide]"
10,> 7.30,"C=CC(=O)Nc1ccc2c(c1)nc(N1C[C@H](O)C[C@@H](Nc3ncc(C(F)(F)F)cn3)C1)n2C [Example 88, N-(2-((3R,5R)-3-Hydroxy-5-((5-(trifluoromethyl)pyrimidin-2-yl)amino)piperidin-1-yl)-1-methyl-1H-benzo[d]imidazol-5-yl)acrylamide]"
11,> 7.30,"C=CC(=O)Nc1ccc2c(c1)nc([C@H]1CCC[C@@H](Nc3ncc(C#N)c(OC)n3)C1)n2CCO [Example 47, N-(2-((1S,3R)-3-((5-Cyano-4-methoxypyrimidin-2-yl)amino)cyclohexyl)-1-(2-hydroxyethyl)-1H-benzo[d]imidazol-5-yl)acrylamide]"
12,> 7.30,"C=CC(=O)Nc1cc2nc(N3C[C@H](F)C[C@@H](Nc4ncc(C(F)(F)F)cn4)C3)n(C)c2cc1C(C)C [Example 101, N-(2-((3R,5R)-3-Fluoro-5-((5-(trifluoromethyl)pyrimidin-2-yl)amino)piperidin-1-yl)-6-isopropyl-1-methyl-1H-benzo[d]imidazol-5-yl)acrylamide]"
13,6.30 to 7.30,"C=CC(=O)Nc1ccc2c(cnn2[C@H]2CCC[C@@H](Nc3ncc(C#N)c(OC)n3)C2)c1 [Example 25, N-(1-((1S,3R)-3-((5-Cyano-4-methoxypyrimidin-2-yl)amino)cyclohexyl)-1H-indazol-5-yl)acrylamide]"
14,> 7.30,"C=CC(=O)Nc1ccc2c(c1)nc([C@H]1CCC[C@@H](Nc3ncc(C(F)(F)F)cn3)C1)n2C [Example 72, N-(1-Methyl-2-((1S,3R)-3-((5-(trifluoromethyl)pyrimidin-2-yl)amino)cyclohexyl)-1H-benzo[d]imidazol-5-yl)acrylamide]"
15,> 7.30,"C=CC(=O)Nc1ccc2c(c1)nnn2[C@H]1CCC[C@@H](Nc2ncc(C#N)cn2)C1 [Example 71, N-(1-((1S,3R)-3-((5-Cyanopyrimidin-2-yl)amino)cyclohexyl)-1H-benzo[d][1,2,3]triazol-5-yl)acrylamide]"
16,6.30 to 7.30,"C=CC(=O)Nc1ccc2c(c1)nc(C(F)F)n2[C@H]1CCC[C@@H](Nc2ncc(C#N)cn2)C1 [Example 84, N-(1-((1S,3R)-3-((5-Cyanopyrimidin-2-yl)amino)cyclohexyl)-2-(difluoromethyl)-1H-benzo[d]imidazol-5-yl)acrylamide]"
17,> 7.30,"C=CC(=O)Nc1ccc2sc(N3CC[C@@H](Nc4ncc(C#N)c(OC)n4)C3)nc2c1 [Example 41, (R)—N-(2-(3-((5-Cyano-4-methoxypyrimidin-2-yl)amino)pyrrolidin-1-yl)benzo[d]thiazol-5-yl)acrylamide]"
18,> 7.30,"C=CC(=O)Nc1ccc2c(c1)C(=O)N([C@H]1CCC[C@@H](Nc3ncc(C#N)c(N4CCOCC4)n3)C1)C2 [Example 76, N-(2-((1S,3R)-3-((5-Cyano-4-morpholinopyrimidin-2-yl)amino)cyclohexyl)-3-oxoisoindolin-5-yl)acrylamide]"
19,6.30 to 7.30,"COc1nc(N[C@@H]2CCC[C@H](c3nc4cc(NC(=O)C5OC5C(=O)O)ccc4n3C)C2)ncc1C#N (stereo partly drawn) [Example 51, 3-((2-((1S,3R)-3-((5-Cyano-4-methoxypyrimidin-2-yl)amino)cyclohexyl)-1-methyl-1H-benzo[d]imidazol-5-yl)carbamoyl)oxirane-2-carboxylic acid]"
20,> 7.30,"C=CC(=O)Nc1nc2cccc(N3CCC[C@@H](Nc4ncc(C#N)c(OC)n4)C3)n2n1 [Example 22, (R)—N-(5-(3-((5-Cyano-4-methoxypyrimidin-2-yl)amino)piperidin-1-yl)-[1,2,4]triazolo[1,5-a]pyridin-2-yl)acrylamide]"
21,6.30 to 7.30,"CC#CC(=O)Nc1ccc2c(c1)C(=O)N([C@H]1CCC[C@@H](Nc3ncc(C#N)c(OC)n3)C1)C2 [Example 60, N-(2-((1S,3R)-3-((5-Cyano-4-methoxypyrimidin-2-yl)amino)cyclohexyl)-3-oxoisoindolin-5-yl)but-2-ynamide]"
22,> 7.30,"COc1nc(N[C@@H]2CCC[C@H](N3Cc4ccc(NC(=O)C(C)Br)cc4C3=O)C2)ncc1C#N (stereo partly drawn) [Example 55, 2-Bromo-N-(2-((1S,3R)-3-((5-cyano-4-methoxypyrimidin-2-yl)amino)cyclohexyl)-3-oxoisoindolin-5-yl)propanamide]"
23,6.30 to 7.30,"CC#CC(=O)Nc1ccc2c(c1)nc([C@H]1CCC[C@@H](Nc3ncc(C#N)c(OC)n3)C1)n2C [Example 54, N-(2-((1S,3R)-3-((5-Cyano-4-methoxypyrimidin-2-yl)amino)cyclohexyl)-1-methyl-1H-benzo[d]imidazol-5-yl)but-2-ynamide]"
24,> 7.30,"COc1nc(N[C@@H]2CCC[C@H](N3Cc4ccc(NC(=O)/C=C/CN(C)C)cc4C3=O)C2)ncc1C#N [Example 63, (E)-N-(2-((1S,3R)-3-((5-Cyano-4-methoxypyrimidin-2-yl)amino)cyclohexyl)-3-oxoisoindolin-5-yl)-4-(dimethylamino)but-2-enamide]"
25,6.30 to 7.30,"C=CC(=O)Nc1ccc2c(c1)C(=O)N([C@H]1CCC[C@@H](Nc3cc(C)c(C#N)cn3)C1)C2 [Example 16, N-(2-((1S,3R)-3-((5-Cyano-4-methylpyridin-2-yl)amino)cyclohexyl)-3-oxoisoindolin-5-yl)acrylamide]"
26,> 7.30,"COc1nc(N[C@@H]2CCC[C@H](c3nc4cc(NC(=O)CCl)ccc4n3C)C2)ncc1C#N [Example 50, 2-Chloro-N-(2-((1S,3R)-3-((5-cyano-4-methoxypyrimidin-2-yl)amino)cyclohexyl)-1-methyl-1H-benzo[d]imidazol-5-yl)acetamide]"
27,> 7.30,"C=CC(=O)Nc1nc2c(N3CC[C@@H](Nc4ncc(C#N)c(OC)n4)C3)nccn2n1 [Example 3, (R)—N-(8-(3-((5-Cyano-4-methoxypyrimidin-2-yl)amino)pyrrolidin-1-yl)-[1,2,4]triazolo[1,5-a]pyrazin-2-yl)acrylamide]"
